Data from PubChem BioAssay (NCI).
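Here, GI50 denotes the concentration required for 50% inhibition of growth. TGI is the concentration that stops growth completely.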

Tests used:
Test in all cases: NCI-60 cell line screen, 384-well format
UO-31 renal = test system: UO-31 renal
CCRF-CEM leukemia = test system: CCRF-CEM leukemia
A498 renal = test system: A498 renal
NCI-H460 NSCLC = test system: NCI-H460 NSCLC
SF-268 CNS = test system: SF-268 CNS
OVCAR-5 ovarian = test system: OVCAR-5 ovarian
MOLT-4 leukemia = test system: MOLT-4 leukemia
U251 glioblastoma = test system: U251 glioblastoma
HS 578T breast = test system: HS 578T breast
SK-MEL-28 melanoma = test system: SK-MEL-28 melanoma
MDA-MB-435 melanoma = test system: MDA-MB-435 melanoma
RPMI-8226 leukemia = test system: RPMI-8226 leukemia
MALME-3M melanoma = test system: MALME-3M melanoma
TK-10 renal = test system: TK-10 renal
SK-MEL-5 melanoma = test system: SK-MEL-5 melanoma
NCI-H23 lung = test system: NCI-H23 lung
SR leukemia = test system: SR leukemia
COLO 205 colon = test system: COLO 205 colon
OVCAR-8 ovarian = test system: OVCAR-8 ovarian
HCT-116 colon = test system: HCT-116 colon
NCI-H226 lung = test system: NCI-H226 lung
EKVX NSCLC = test system: EKVX NSCLC
SK-OV-3 ovarian = test system: SK-OV-3 ovarian
ACHN renal = test system: ACHN renal
SF-295 CNS = test system: SF-295 CNS
MCF7 breast = test system: MCF7 breast
T-47D breast = test system: T-47D breast
DU-145 prostate = test system: DU-145 prostate
HT29 colon = test system: HT29 colon
BT-549 breast = test system: BT-549 breast
NCI-H322M lung = test system: NCI-H322M lung
OVCAR-3 ovarian = test system: OVCAR-3 ovarian
LOX IMVI melanoma = test system: LOX IMVI melanoma
PC-3 prostate = test system: PC-3 prostate
MDA-MB-231 breast = test system: MDA-MB-231 breast
UACC-257 melanoma = test system: UACC-257 melanoma
HCT-15 colon = test system: HCT-15 colon
SNB-75 CNS = test system: SNB-75 CNS
MDA-MB-468 breast = test system: MDA-MB-468 breast
SN12C renal = test system: SN12C renal
CAKI-1 renal = test system: CAKI-1 renal
SF-539 CNS = test system: SF-539 CNS
OVCAR-4 ovarian = test system: OVCAR-4 ovarian
786-0 renal = test system: 786-0 renal
HOP-92 NSCLC = test system: HOP-92 NSCLC
KM12 colon = test system: KM12 colon
NCI-H522 lung = test system: NCI-H522 lung
RXF 393 renal = test system: RXF 393 renal
IGROV1 ovarian = test system: IGROV1 ovarian
SW-620 colon = test system: SW-620 colon
A549 NSCLC = test system: A549 NSCLC
UACC-62 melanoma = test system: UACC-62 melanoma
HL-60(TB) leukemia = test system: HL-60(TB) leukemia
M14 melanoma = test system: M14 melanoma
HOP-62 NSCLC = test system: HOP-62 NSCLC
SNB-19 CNS = test system: SNB-19 CNS

With `COc1cc2c(cc1O)CCN[C@]21CS[C@@H]2c3c(OC(C)=O)c(C)c4c(c3[C@H](COC1=O)N1[C@@H]2[C@H]2c3c(cc(C)c(OC)c3O)C[C@@H]([C@@H]1O)N2C)OCO4` the GI50 (UO-31 renal) was 0.514 nM, the TGI (UO-31 renal) was 0.962 nM and the GI50 (CCRF-CEM leukemia) was 0.0203 nM. For the same compound, the TGI (CCRF-CEM leukemia) was 0.0389 nM, the GI50 (A498 renal) was 1.18 nM and the TGI (A498 renal) was 2.61 nM. The GI50 (NCI-H460 NSCLC) was 0.112 nM, the TGI (NCI-H460 NSCLC) was 0.454 nM and the GI50 (SF-268 CNS) was 0.121 nM. It also gave a TGI (SF-268 CNS) of 0.542 nM, a GI50 (OVCAR-5 ovarian) of 0.983 nM and a TGI (OVCAR-5 ovarian) of 9.36 nM. The GI50 (MOLT-4 leukemia) was 0.0228 nM, the TGI (MOLT-4 leukemia) was 0.0638 nM and the GI50 (U251 glioblastoma) was 0.17 nM. For the same compound, the TGI (U251 glioblastoma) was 0.842 nM, the GI50 (HS 578T breast) was 0.175 nM and the TGI (HS 578T breast) was 0.555 nM. The GI50 (SK-MEL-28 melanoma) was 0.459 nM, the TGI (SK-MEL-28 melanoma) was 0.888 nM and the GI50 (MDA-MB-435 melanoma) was 0.614 nM. It also gave a TGI (MDA-MB-435 melanoma) of 1.09 nM, a GI50 (RPMI-8226 leukemia) of 0.0686 nM and a TGI (RPMI-8226 leukemia) of 0.153 nM. The GI50 (MALME-3M melanoma) was 0.136 nM, the TGI (MALME-3M melanoma) was 0.37 nM and the GI50 (TK-10 renal) was 2.48 nM. For the same compound, the TGI (TK-10 renal) was 6 nM, the GI50 (SK-MEL-5 melanoma) was 0.0992 nM and the TGI (SK-MEL-5 melanoma) was 0.345 nM. It also gave a GI50 (NCI-H23 lung) of 0.0949 nM, a TGI (NCI-H23 lung) of 0.309 nM and a GI50 (SR leukemia) of 0.0313 nM. For the same compound, the TGI (SR leukemia) was 0.0728 nM, the GI50 (COLO 205 colon) was 0.433 nM and the TGI (COLO 205 colon) was 0.882 nM. For the same compound, the GI50 (OVCAR-8 ovarian) was 0.169 nM, the TGI (OVCAR-8 ovarian) was 0.555 nM and the GI50 (HCT-116 colon) was 0.653 nM. For the same compound, the GI50 (NCI-H226 lung) was 0.0901 nM, the TGI (NCI-H226 lung) was 0.359 nM and the GI50 (EKVX NSCLC) was 0.583 nM. For the same compound, the TGI (EKVX NSCLC) was 1.28 nM, the GI50 (SK-OV-3 ovarian) was 2.22 nM and the TGI (SK-OV-3 ovarian) was 7.34 nM. It also gave a GI50 (ACHN renal) of 0.685 nM, a TGI (ACHN renal) of 2.24 nM and a GI50 (SF-295 CNS) of 0.0877 nM. It also gave a TGI (SF-295 CNS) of 0.299 nM, a GI50 (MCF7 breast) of 0.447 nM and a TGI (MCF7 breast) of 5.54 nM. It also gave a GI50 (T-47D breast) of 0.482 nM, a TGI (T-47D breast) of 2.33 nM and a GI50 (DU-145 prostate) of 0.31 nM. The TGI (DU-145 prostate) was 0.84 nM, the GI50 (HT29 colon) was 0.117 nM and the TGI (HT29 colon) was 0.245 nM. For the same compound, the GI50 (BT-549 breast) was 0.0545 nM, the TGI (BT-549 breast) was 0.124 nM and the GI50 (NCI-H322M lung) was 0.481 nM. It also gave a TGI (NCI-H322M lung) of 1.03 nM, a GI50 (OVCAR-3 ovarian) of 0.227 nM and a TGI (OVCAR-3 ovarian) of 0.698 nM. It also gave a GI50 (LOX IMVI melanoma) of 0.0744 nM, a TGI (LOX IMVI melanoma) of 0.234 nM and a GI50 (PC-3 prostate) of 0.396 nM. For the same compound, the TGI (PC-3 prostate) was 1.54 nM, the GI50 (MDA-MB-231 breast) was 1 nM and the TGI (MDA-MB-231 breast) was 2.56 nM. It also gave a GI50 (UACC-257 melanoma) of 0.546 nM, a TGI (UACC-257 melanoma) of 0.987 nM and a GI50 (HCT-15 colon) of 0.595 nM. It also gave a TGI (HCT-15 colon) of 5.24 nM, a GI50 (SNB-75 CNS) of 0.0952 nM and a TGI (SNB-75 CNS) of 0.329 nM. For the same compound, the GI50 (MDA-MB-468 breast) was 0.0656 nM, the TGI (MDA-MB-468 breast) was 0.147 nM and the GI50 (SN12C renal) was 0.133 nM. For the same compound, the TGI (SN12C renal) was 0.715 nM, the GI50 (CAKI-1 renal) was 0.497 nM and the TGI (CAKI-1 renal) was 4.25 nM. The GI50 (SF-539 CNS) was 0.0765 nM, the TGI (SF-539 CNS) was 0.185 nM and the GI50 (OVCAR-4 ovarian) was 2.77 nM. The TGI (OVCAR-4 ovarian) was 5.98 nM, the GI50 (786-0 renal) was 0.0975 nM and the TGI (786-0 renal) was 0.568 nM. The GI50 (HOP-92 NSCLC) was 0.0211 nM, the TGI (HOP-92 NSCLC) was 0.0954 nM and the GI50 (KM12 colon) was 1.4 nM. The TGI (KM12 colon) was 3.58 nM, the GI50 (NCI-H522 lung) was 0.11 nM and the TGI (NCI-H522 lung) was 0.447 nM. The GI50 (RXF 393 renal) was 0.0747 nM, the TGI (RXF 393 renal) was 0.209 nM and the GI50 (IGROV1 ovarian) was 0.885 nM. For the same compound, the TGI (IGROV1 ovarian) was 8.12 nM, the GI50 (SW-620 colon) was 1.61 nM and the TGI (SW-620 colon) was 3.49 nM. For the same compound, the GI50 (A549 NSCLC) was 0.868 nM, the TGI (A549 NSCLC) was 2.37 nM and the GI50 (UACC-62 melanoma) was 0.099 nM. The TGI (UACC-62 melanoma) was 0.371 nM, the GI50 (HL-60(TB) leukemia) was 0.0567 nM and the TGI (HL-60(TB) leukemia) was 0.105 nM. The GI50 (M14 melanoma) was 0.0865 nM, the TGI (M14 melanoma) was 0.237 nM and the GI50 (HOP-62 NSCLC) was 0.0657 nM. For the same compound, the TGI (HOP-62 NSCLC) was 0.177 nM and the GI50 (SNB-19 CNS) was 0.84 nM.
